Patent publication US10357576B2, “18F-labelled folate/antifolate analogues” (MERCK & CIE, priority 2012, dated 2019)

How the values were obtained:
[1] = Log D7.4 determination, shake-flask method (n-octanol/PBS); format: physicochemical; conditions: n-octanol/PBS pH 7.4, room temperature, n=10
Method: Determination of the Log D: Determination of the log D value was performed, using the shake-flask-method, where the partition coefficient of the radiotracer between n-octanol and phosphate buffered saline (PBS) was determined (Wilson et al. 2001 Applied Radiation and Isotopes). n-Octanol (0.5 ml) and PBS (0.5 ml) were mixed in an Eppendorf tube containing the radioactive sample (5-10 μl). Tubes were shaken for 15 min at room temperature in an over-head shaker and afterwards centrifuged (3 min, 5000 rpm). From each Eppendorf tube, 50 μl of each phase were transferred into a vial for counting in a γ-counter. The log D value was calculated according to the following equation: log D7.4=log [activity(octanol phase)/activity PBS phase)].
For log D7.4 determination a phosphate buffer was prepared, making a solution of KH2PO4 (1.743 g, 12.81 mmol) and Na2HPO4.2H2O (9.596 g, 53.91 mmol) in water (1000 ml). A saturated solution of phosphate buffer in n-octanol and a saturated solution of n-octanol in phosphate buffer were prepared. The PBS solution (500 μl) and n-octanol solution (500 μl) were pipetted into an Eppendorf tube and the radiotracer (5-10 μl) was added. The Eppendorf tube was shaken for 15 min at room temperature in an over-head shaker. […] By calculating the logarithm of the ratio of the counts in the n-octanol and the PBS phase, the log D7.4 value was determined. […]

[2] = Stability experiments using liver microsomes (mouse); format: in vitro ADME; conditions: 37° C., 1 h, NADPH regenerating system, radio-UPLC
Description: (§1) General: Reagents and solvents were purchased from Sigma-Aldrich Chemie GmbH, Acros Organics or VWR International AG if nothing else is mentioned. All chemicals were used as supplied. Human and mouse (female CD-1) microsomes and the NADPH regenerating systems were purchased from BD biosciences.
(§2) Radio-UPLC: For stability studies, an ultra-performance liquid chromatography (UPLC™, Waters) system, equipped with an Acquity UPLC BEH C18 column (1.7 μm, 2.1×50 mm, Waters) and a coincidence detector (FlowStar LB513, Berthold) was used with following solvent system: eluent A was a NaH2PO4/Na2HPO4 buffer (0.05 M, pH 7.4) and eluent B was acetonitrile. A gradient from 0-4.0 min 100%-40% A, at a flow rate of 0.6 ml/min was used.
(§3) To a mixture of KH2PO4/K2HPO4 buffer (pH 7.4, 0.5 M, 200 μl), NADPH regenerating system A (50 μl), NADPH regenerating system B (10 μl), an aliquot of [^18F]-3′-aza-2′-fluorofolic acid (38 μl, approx. 15 MBq) was added and filled up with water (677 μl) to a volume of 975 μl and preincubated at 37° C. Then, mouse or human liver microsomes (20 mg/ml, 25 μl) were added and incubated at 37° C. After several time points (0, 20, 40 and 60 min) aliquots (100 μl) were drawn and the enzymatical reaction was stopped by purring the solution into ice-cold methanol (200 μl). […] Every time point was performed as a triplicate and analyzed on a radio-UPLC system. […]

[3] = Stability experiments using glutathione / S9-fraction; format: in vitro ADME, human; conditions: 37° C., 1 h, radio-UPLC
Method: as §2
Glutathione (0.1 M, 100 μl), S9-fraction (20 mg/ml, 50 μl) and KH2PO4/K2HPO4 buffer (pH 7.4, 0.5 M, 200 μl) were diluted with water (612 μl) to a volume of […] and [^18F]-3′-aza-2′-fluorofolic acid (38 μl, approx. 15 MBq) was added. The mixture was incubated at 37° C. At several time points aliquots (100 μl) were drawn and the reaction was stopped by pouring the sample into ice-cold methanol (200 μl). Each sample was diluted with NaH2PO4/Na2HPO4 buffer (pH 7.4, 0.05 M, 600 μl). Every time point was performed as duplicates and analyzed on a radio-UPLC system.

[4] = test system: KB tumor xenografts; test: PET imaging studies in KB tumor-bearing mice; format: in vivo
Method: PET experiments were performed with an eXplore VISTA PET/CT tomograph (GE). Tumor bearing mice were injected with 10-18 MBq of 3′-aza-2′-[^18F]fluorofolic acid (100-150 μl per injection) via lateral tail vein. […] Animals were anesthetized with isoflurane in an air/oxygen mixture. The PET scans were acquired from 120-150 min p.i. After acquisition, PET data were reconstructed in user-defined time frames. The fused datasets of PET and CT were analyzed with PMOD (version 3.2) software.
Dynamic PET scans of mice 1.5-90 min p.i. of 3′-aza-2′-[^18F]fluorofolic acid and at 60-150 min p.i. were performed. Static PET scans of [^18F]-2′3′-aza-folic acid were typically performed with a scan time from 120-150 min p.i. […] The uptake in other non-target organs was negligible, the only exceptions being the liver, kidneys and salivary glands.

[5] = Human plasma stability; format: in vitro ADME; conditions: 37° C., 4 h, radio-UPLC
Method: as §2
The radiotracer was tested with regard to its stability in human blood plasma over a period of 4 hours at 37° C. The formulated product (200 μL) was diluted with sodium phosphate buffer (100 μl) and an aliquot (60 μl, 15 MBq) was added to human plasma (500 μL), pre-incubated at 37° C. The mixture was shaken on a Thermomixer compact (Eppendorf) at 37° C. and 500 rpm. After several time points (0, 30, 60, 120, 150 and 240 min) aliquots were taken after tracer addition. Each aliquot (70 μl) was added to ice-cold MeOH (150 μl) to precipitate the proteins. To separate the supernatant from the precipitate, the suspension was centrifuged for 10 min at 13400 rpm (Eppendorf MiniSpin) at room temperature. The supernatant was passed through a microfilter (Sartorius Stedim Biotech GmbH, Minisart RC 25, 0.45 μm) and was analyzed on the radio-UPLC system.

[6] = Stability experiments using liver microsomes (human); format: in vitro ADME; conditions: 37° C., 1 h, NADPH regenerating system, radio-UPLC
Description: as §1, §2, §3

[7] = PET, pemetrexed 400 μg 60 min prior to the radiotracer

log D7.4 (partition coefficient in n-octanol/PBS) [1]: −4.2±0.1
logD ([1]; read-out: log D7.4 (partition coefficient in n-octanol/PBS)): -4.2 ± 0.1
Stability in mouse liver microsomes [2]: completely stable
Stability with glutathione and S9-fraction [3]: completely stable
Uptake in the tumor tissue and in the kidneys with coinjected folic acid ([4]; PET 120-150 min p.i., excess folic acid 100 μg): reduced uptake
Accumulation in the liver after preinjection of pemetrexed [4, 7]: very strong reduction
Kidney uptake after preinjection of pemetrexed [4, 7]: reduced kidney uptake
Tumor uptake after preinjection of pemetrexed [4, 7]: high tumor uptake
Specific uptake in KB tumor xenografts ([4]; quoted with static baseline PET scan 120-150 min p.i.): 12.6±1.8 % ID/g
Uptake in other non-target organs (except liver, kidneys and salivary glands) ([4]; static baseline PET scan 120-150 min p.i.): negligible
Stability in human blood plasma [5]: completely stable
Stability in human liver microsomes [6]: completely stable
Compound: Nc1nc2ncc(CNc3ccc(C(=O)N[C@@H](CCC(=O)O)C(=O)O)c([18F])n3)nc2c(=O)[nH]1 [3′-aza-2′-[^18F]fluorofolic acid]
